The text below walks through data of ChEMBL document CHEMBL1671799, “Modelling topoisomerase I inhibition by minor groove binders” (Bioorg Med Chem, 2011).

The species named for this test is Bos taurus. Briefly: Inhibition of calf thymus topoisomerase 1 relative to Hoechst 33342.

Calls of active or inactive are those of the source. No cut-off for these calls is given here. Some results are limits rather than exact numbers.

With `CCCc1nc2ccc(-c3nc4ccc(-c5nc6ccc(Br)cc6[nH]5)cc4[nH]3)cc2[nH]1`, the Ratio amounted to 1. The same measure, in the same setting: as for `CN1CCN(c2ccc3[nH]c(-c4ccc5[nH]c(-c6cccc7ccccc67)nc5c4)nc3c2)CC1`, the figure is 20.

Turning to `c1cc(-c2ccc3[nH]c(-c4ccc5[nH]c(-c6ccc7[nH]cnc7c6)nc5c4)nc3c2)ccn1`, the Ratio was determined as 2. Same read-out and setting: in the case of `Oc1ccc2[nH]c(-c3ccc4nc(-c5ccc6nc[nH]c6c5)[nH]c4c3)nc2c1` it was 0.5; in that of `CCCc1ccc2[nH]c(-c3ccc4[nH]c(-c5ccc6[nH]cnc6c5)nc4c3)nc2c1`, 0.5; in that of `N#Cc1ccc2[nH]c(-c3ccc4[nH]c(-c5ccc6[nH]cnc6c5)nc4c3)nc2c1`, 0.1. As to `COc1ccc(-c2nc3cc([N+](=O)[O-])ccc3o2)cc1`, the inhibition result is “inactive”. `Clc1nc2ccc(-c3nc4ccc(-c5nc6cc(Br)c(Br)cc6[nH]5)cc4[nH]3)cc2[nH]1`: the Ratio came to 1. The same measure, in the same setting: as for `c1ccc(-c2ccc3[nH]c(-c4ccc5[nH]c(-c6ccc7[nH]ccc7c6)nc5c4)nc3c2)cc1`, the figure is 50. Still for that read-out and setting: in the case of `COc1ccc(-c2nc3cc(-c4nc5cc(OC6CCN(C)CC6)ccc5[nH]4)ccc3[nH]2)cc1` it was 2. For `COc1ccc(-c2nc3cc(-c4nc5cc(N6CCN(C)CC6)ccc5[nH]4)ccc3[nH]2)cc1`, the Ratio was 1.

As to `COc1ccc(-c2nc3c([N+](=O)[O-])cccc3[nH]2)cc1`, the Ratio was more than 300000. The same measure, in the same setting: as for `c1ccc(-c2cc3nc(-c4ccc5nc(-c6ccc7nc[nH]c7c6)[nH]c5c4)[nH]c3cc2-c2ccccc2)cc1`, the figure is 1; as for `c1ccc(-c2ccc3[nH]c(-c4ccc5nc(-c6ccccc6)[nH]c5c4)nc3c2)cc1`, 40.

Take `c1ccc(-c2ccc3[nH]c(-c4ccc5[nH]c(-c6ccc7[nH]nnc7c6)nc5c4)nc3c2)cc1`: the Ratio stood at 1. Still for that read-out and setting: in the case of `N#Cc1ccc2[nH]c(-c3ccc4[nH]c(-c5ccccc5)nc4c3)nc2c1` it was more than 100; in that of `COc1ccc(-c2nc3cc(C#N)ccc3[nH]2)cc1`, more than 300000.

Take `CCc1nc2ccc(-c3nc4cc(-c5ccccc5)ccc4[nH]3)cc2[nH]1`: the Ratio was 2. Still for that read-out and setting: in the case of `c1ccc2cc(-c3ccc4[nH]c(-c5ccc6nc[nH]c6c5)nc4c3)ccc2c1` it was 2. For `COc1ccc(-c2nc3cc([N+](=O)[O-])ccc3s2)cc1`, the inhibition result is “inactive”. As to `NC(=O)c1ccc2[nH]c(-c3ccc4[nH]c(-c5ccc6ccccc6c5)nc4c3)nc2c1`, the Ratio is 100. Turning to `c1ccc2[nH]c(-c3ccc4[nH]c(-c5ccc6[nH]cnc6c5)nc4c3)nc2c1`, the Ratio came out at 1.1.

Regarding `c1ccc(-c2cccc3[nH]c(-c4ccc5nc[nH]c5c4)nc23)cc1`, the Ratio was found to be 10. On the same count and under the same terms, as for `COc1ccc(-c2nc3cc(-c4nc5cc(N)ccc5[nH]4)ccc3[nH]2)cc1`, the figure is 100. Take `COc1ccc(-c2nc3cc(CO)ccc3[nH]2)cc1`: the Ratio was 30000.

`COc1ccc(-c2nc3ccccc3[nH]2)cc1`: the Ratio is more than 300000. Take `Clc1ccc2[nH]c(-c3ccc4nc(-c5ccc6nc[nH]c6c5)[nH]c4c3)nc2c1`: the Ratio came to 1. Still for that read-out and setting: as for `Clc1ccc(-c2ccc3[nH]c(-c4ccc5nc[nH]c5c4)nc3c2)cc1`, the figure is 4. The same measure, in the same setting: in the case of `Cc1cccc(-c2nc3cc(-c4nc5cc(C(N)=O)ccc5[nH]4)ccc3[nH]2)c1` it was 100; in that of `c1nc2ccc(-c3nc4ccc(-c5nc6cc(N7CCCCC7)ccc6[nH]5)cc4[nH]3)cc2[nH]1`, 0.5; in that of `COc1ccc(-c2nc3cc(CN)ccc3[nH]2)cc1`, more than 300000. The same measure, in the same setting: in the case of `O=[N+]([O-])c1ccc2[nH]c(-c3ccc4nc(-c5ccc6nc[nH]c6c5)[nH]c4c3)nc2c1` it was 0.5; in that of `COc1ccc(-c2nc3cc(Br)ccc3[nH]2)cc1`, more than 300000. As to `Cc1cccc(-c2nc3cc(-c4nc5cc(C#N)ccc5[nH]4)ccc3[nH]2)c1`, the Ratio was determined as 100. Same read-out and setting: as for `c1ccc(-c2ccc3[nH]c(-c4ccc5[nH]c(-c6ccc7cc[nH]c7c6)nc5c4)nc3c2)cc1`, the figure is 5. Still for that read-out and setting: in the case of `Nc1ccc2[nH]c(-c3ccc4nc(-c5ccc6nc[nH]c6c5)[nH]c4c3)nc2c1` it was 1; in that of `c1ccc(-c2ccc3[nH]c(-c4ccc5[nH]c(-c6ccc7[nH]cnc7c6)nc5c4)nc3c2)nc1`, 3.3; in that of `COc1ccc(-c2nc3cc(-c4nc5cc(CCCN(C)C)ccc5[nH]4)ccc3[nH]2)cc1`, 2. Take `c1ccc(-c2ccc3[nH]c(-c4ccc5nc[nH]c5c4)nc3c2)cc1`: the Ratio was 2. The same measure, in the same setting: as for `COc1ccc(-c2nc3cc(-c4nc5cc(C#N)ccc5[nH]4)ccc3[nH]2)cc1`, the figure is 3.3. The same measure, in the same setting: as for `NC(=O)c1ccc2[nH]c(-c3ccc4[nH]c(-c5ccccc5)nc4c3)nc2c1`, the figure is 10. Still for that read-out and setting: in the case of `Cc1ccccc1-c1nc2cc(-c3nc4cc(C(N)=O)ccc4[nH]3)ccc2[nH]1` it was 100.

With `COc1ccc(-c2nc3cc(-c4nc5cc(N(C)C)ccc5[nH]4)ccc3[nH]2)cc1`, the Ratio came out at 1000. The same measure, in the same setting: as for `Cc1ccc(-c2nc3cc(-c4nc5cc(N6CCN(C)CC6)ccc5[nH]4)ccc3[nH]2)cc1`, the figure is 1. `COc1ccc(-c2nc3ccc([N+](=O)[O-])cc3o2)cc1`: the inhibition result is “inactive”. As to `Cc1ccccc1-c1nc2cc(-c3nc4cc(C#N)ccc4[nH]3)ccc2[nH]1`, the Ratio was more than 500.

For the molecule `c1ccc2c(-c3ccc4[nH]c(-c5ccc6nc[nH]c6c5)nc4c3)cccc2c1`, the Ratio came out at 4. `c1ccc2c(c1)ccc1[nH]c(-c3ccc4nc[nH]c4c3)nc12`: the Ratio worked out at 2. Still for that read-out and setting: as for `COc1ccc(-c2nc3cc(C=O)ccc3[nH]2)cc1`, the figure is 300. The same measure, in the same setting: as for `c1ccc(-c2ccc3[nH]c(-c4ccc5[nH]c(-c6ccc7nccnc7c6)nc5c4)nc3c2)cc1`, the figure is more than 100. The same measure, in the same setting: as for `FC(F)(F)c1nc2ccc(-c3nc4ccc(-c5nc6cc(Br)c(Br)cc6[nH]5)cc4[nH]3)cc2[nH]1`, the figure is 1; as for `COc1cc2nc(-c3ccc4nc(-c5ccc6nc[nH]c6c5)[nH]c4c3)[nH]c2cc1Br`, 2. With `N#Cc1ccc2[nH]c(-c3ccc4[nH]c(-c5cccc6ccccc56)nc4c3)nc2c1`, the Ratio was 10. On the same count and under the same terms, in the case of `COc1ccc(-c2nc3ccc(-c4nc5cc(-c6ccccc6)ccc5[nH]4)cc3[nH]2)cc1` it was 40; in that of `Cc1ccc(-c2nc3cc(-c4nc5cc(C(N)=O)ccc5[nH]4)ccc3[nH]2)cc1`, 10. For the molecule `Oc1nc2ccc(-c3nc4ccc(-c5nc6ccc(Br)cc6[nH]5)cc4[nH]3)cc2[nH]1`, the Ratio turned out to be 1. In the case of `N#Cc1ccc2[nH]c(-c3ccc4[nH]cnc4c3)nc2c1`, the Ratio came out at 1000. Still for that read-out and setting: in the case of `CCCc1nc2ccc(-c3nc4cc(-c5ccccc5)ccc4[nH]3)cc2[nH]1` it was 1; in that of `Cc1nc2ccc(-c3nc4cc(-c5ccccc5)ccc4[nH]3)cc2[nH]1`, 4. On to `c1cncc(-c2ccc3[nH]c(-c4ccc5[nH]c(-c6ccc7[nH]cnc7c6)nc5c4)nc3c2)c1`, for which the Ratio amounted to 2.

Take `FC(F)(F)c1nc2ccc(-c3nc4ccc(-c5nc6ccc(-c7ccc(Cl)cc7)cc6[nH]5)cc4[nH]3)cc2[nH]1`: the Ratio amounted to 1. `c1ccc2c(-c3ccc4[nH]c(-c5ccc6[nH]c(-c7ccc8[nH]cnc8c7)nc6c5)nc4c3)cccc2c1`: the Ratio turned out to be 10. The same measure, in the same setting: in the case of `COc1ccc(-c2nc3cc(-c4nc5cc(CCN(C)C)ccc5[nH]4)ccc3[nH]2)cc1` it was 5. The same measure, in the same setting: as for `c1ccc(-c2ccc3[nH]c(-c4ccc5[nH]c(-c6ccc7[nH]cnc7c6)nc5c4)nc3c2)cc1`, the figure is 1.

Consider `Oc1nc2ccc(-c3nc4cc(-c5nc6cc(-c7ccccc7)ccc6[nH]5)ccc4[nH]3)cc2nc1O`, for which the Ratio worked out at 1. Same read-out and setting: as for `COc1ccc(-c2nc3cc(-c4nc5cc(-c6nc7cc(C#N)ccc7[nH]6)ccc5[nH]4)ccc3[nH]2)cc1`, the figure is 1000; as for `c1ccc2cc(-c3ccc4[nH]c(-c5ccc6[nH]c(-c7ccc8[nH]cnc8c7)nc6c5)nc4c3)ccc2c1`, 10. Turning to `Brc1ccc2[nH]c(-c3ccc4nc(-c5ccc6nc[nH]c6c5)[nH]c4c3)nc2c1`, the Ratio was 1. The same measure, in the same setting: as for `Brc1cc2nc(-c3ccc4nc(-c5ccc6nc[nH]c6c5)[nH]c4c3)[nH]c2cc1Br`, the figure is 1; as for `CN1CCN(c2ccc3[nH]c(-c4ccc5[nH]c(-c6ccc7ccccc7c6)nc5c4)nc3c2)CC1`, 10. Still for that read-out and setting: in the case of `COc1ccc2[nH]c(-c3ccc4nc(-c5ccc6nc[nH]c6c5)[nH]c4c3)nc2c1` it was 0.05. Turning to `COc1ccc(-c2cc3ccc([N+](=O)[O-])cc3[nH]2)cc1`, the inhibition entry was “inactive”. As for `c1ccc2cc3[nH]c(-c4ccc5nc[nH]c5c4)nc3cc2c1`, the Ratio is 2000. For the molecule `Cc1cccc(-c2nc3cc(-c4nc5cc(N6CCN(C)CC6)ccc5[nH]4)ccc3[nH]2)c1`, the Ratio is 1. Consider `CC(C)c1nc2ccc(-c3nc4cc(-c5ccccc5)ccc4[nH]3)cc2[nH]1`, for which the Ratio was found to be 1.

As to `COc1ccc(-c2nc3ccc([N+](=O)[O-])cc3s2)cc1`, the inhibition result was “inactive”. Consider `CN1CCN(c2ccc3[nH]c(-c4ccc5[nH]c(-c6ccccc6)nc5c4)nc3c2)CC1`, for which the Ratio turned out to be 1. `NC(=O)c1ccc2[nH]c(-c3ccc4[nH]c(-c5cccc6ccccc56)nc4c3)nc2c1`: the Ratio turned out to be 20. Same read-out and setting: as for `COc1ccc(-c2nc3cc(C(N)=O)ccc3[nH]2)cc1`, the figure is 3000.

`COc1cc2nc(-c3ccc4nc(-c5ccc6nc[nH]c6c5)[nH]c4c3)[nH]c2cc1-c1ccccc1`: the Ratio was 0.5. Same read-out and setting: as for `COc1ccc(-c2nc3cc(-c4nc5cc(CN(C)C)ccc5[nH]4)ccc3[nH]2)cc1`, the figure is 2.5. `COc1ccc(-c2cc3cc([N+](=O)[O-])ccc3[nH]2)cc1`: the inhibition entry was “inactive”.

`Cc1ccccc1-c1nc2cc(-c3nc4cc(N5CCN(C)CC5)ccc4[nH]3)ccc2[nH]1`: the Ratio is 10. Still for that read-out and setting: as for `COc1ccc(-c2nc3cc(C(=O)O)ccc3[nH]2)cc1`, the figure is more than 300000; as for `Fc1ccc2[nH]c(-c3ccc4nc(-c5ccc6nc[nH]c6c5)[nH]c4c3)nc2c1`, 0.05. Same read-out and setting: as for `COc1ccc(-c2nc3cc([N+](=O)[O-])ccc3[nH]2)cc1`, the figure is 300.
